Laboratory results: ChEMBL document CHEMBL1126229, “Enol lactone derivatives as inhibitors of human neutrophil elastase and trypsin-like proteases” (Bioorg Med Chem Lett, 1992)
Values belong to the compound of their own block, whether it stands above or below them.

Columns and labels:
[1] = molecular target: T1, Neutrophil elastase (Homo sapiens) (UniProt P08246); assay: Specificity constant on human neutrophil elastase was determined at 30 percent and at 35 minutes for maximum inhibition with 0 minutes persistence of inhibition
T1 sequence (whole entry): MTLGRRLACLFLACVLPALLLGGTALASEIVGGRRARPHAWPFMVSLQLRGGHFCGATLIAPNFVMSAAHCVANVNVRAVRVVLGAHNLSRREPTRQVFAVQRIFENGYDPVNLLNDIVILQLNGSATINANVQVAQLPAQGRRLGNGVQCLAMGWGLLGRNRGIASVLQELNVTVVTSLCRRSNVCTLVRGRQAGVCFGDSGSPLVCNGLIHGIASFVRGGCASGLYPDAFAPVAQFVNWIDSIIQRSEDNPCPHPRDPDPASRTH

[2] = molecular target: T1, Neutrophil elastase (Homo sapiens); assay: Rate constant of acylation on human neutrophil elastase was determined at 30 percent and at 35 minutes for maximum inhibition with 0 minutes persistence of inhibition
[3] = molecular target: T1, Neutrophil elastase (Homo sapiens); assay: Binding constant on human neutrophil elastase was determined at 30 percent and at 35 minutes for maximum inhibition with 0 minutes persistence of inhibition
[4] = molecular target: T2, Chymotrypsin-like elastase family member 2A (Sus scrofa) (UniProt P08419); assay: Specificity constant on porcine pancreatic elastase was determined at 10 percent and at 78 minutes for maximum inhibition and no enzyme activity was recovered over the 2 h-time
T2 sequence (whole entry): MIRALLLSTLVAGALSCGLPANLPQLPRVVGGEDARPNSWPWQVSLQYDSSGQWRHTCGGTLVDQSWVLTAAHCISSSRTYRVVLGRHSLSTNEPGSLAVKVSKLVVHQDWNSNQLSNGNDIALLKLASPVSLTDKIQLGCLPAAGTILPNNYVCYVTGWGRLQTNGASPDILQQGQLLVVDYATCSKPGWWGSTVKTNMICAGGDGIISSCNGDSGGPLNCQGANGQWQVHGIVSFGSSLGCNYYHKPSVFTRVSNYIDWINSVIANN

[5] = molecular target: T2, Chymotrypsin-like elastase family member 2A (Sus scrofa); assay: Binding constant on porcine pancreatic elastase was determined at 10 percent and at 78 minutes for maximum inhibition and no enzyme activity was recovered over the 2 h-time
[6] = molecular target: T2, Chymotrypsin-like elastase family member 2A (Sus scrofa); assay: Rate constant of acylation on porcine pancreatic elastase was determined at 10 percent and at 78 minutes for maximum inhibition and no enzyme activity was recovered over the 2 h-time
Plasminogen [7] = molecular target: T3, Plasminogen (Homo sapiens, UniProt P00747); assay: Rate constant of deacylation for plasmin; Fast and could not be measured
Prothrombin [8] = molecular target: T4, Prothrombin (Homo sapiens, UniProt P00734); assay: Rate constant of deacylation for thrombin
[9] = molecular target: T5, Urokinase-type plasminogen activator (Homo sapiens, UniProt P00749); assay: Rate constant of deacylation for Urokinase-type plasminogen activator
Plasminogen [10] = molecular target: T3, Plasminogen
Plasminogen [11] = molecular target: T3, Plasminogen; remark: listed apart in the source
Plasminogen [12] = molecular target: T3, Plasminogen; remark: listed apart in the source
Description: Binding constant on plasmin was determined at 30 percent and at 82 minutes for maximum inhibition and no enzyme activity was recovered over the 2 h-time

[13] = molecular target: T5, Urokinase-type plasminogen activator
Prothrombin [14] = molecular target: T4, Prothrombin
Prothrombin [15] = molecular target: T4, Prothrombin; remark: listed apart in the source
Prothrombin [16] = molecular target: T4, Prothrombin; remark: listed apart in the source
[17] = molecular target: T5, Urokinase-type plasminogen activator; remark: listed apart in the source
[18] = molecular target: T5, Urokinase-type plasminogen activator; remark: listed apart in the source
Description: Specificity constant on Urokinase-type plasminogen activator was determined at 0 percent and at 91 minutes for maximum inhibition and no enzyme activity was recovered over the 2 h-time

[19] = molecular target: T1, Neutrophil elastase (Homo sapiens); assay: Specificity constant on human neutrophil elastase was determined at 48 percent and at 60 minutes for maximum inhibition and with 0 minutes persistence of inhibition
[20] = molecular target: T1, Neutrophil elastase (Homo sapiens); assay: Rate constant of acylation on human neutrophil elastase was determined at 48 percent and at 60 minutes for maximum inhibition with 0 minutes persistence of inhibition
[21] = molecular target: T1, Neutrophil elastase (Homo sapiens); assay: Binding constant on human neutrophil elastase was determined at 48 percent and at 60 minutes for maximum inhibition with 0 minutes persistence of inhibition
[22] = molecular target: T2, Chymotrypsin-like elastase family member 2A (Sus scrofa); assay: Rate constant of acylation on porcine pancreatic elastase was determined at 42 percent and at 55 minutes for maximum inhibition and no enzyme activity was recovered over the 2 h-time
[23] = molecular target: T2, Chymotrypsin-like elastase family member 2A (Sus scrofa); assay: Specificity constant on porcine pancreatic elastase was determined at 42 percent and at 55 minutes for maximum inhibition and no enzyme activity was recovered over the 2 h-time
[24] = molecular target: T2, Chymotrypsin-like elastase family member 2A (Sus scrofa); assay: Binding constant on porcine pancreatic elastase was determined at 42 percent and at 55 minutes for maximum inhibition and no enzyme activity was recovered over the 2 h-time
[25] = molecular target: T1, Neutrophil elastase (Homo sapiens); assay: Specificity constant on human neutrophil elastase was determined at 30 percent and at 10 minutes for maximum inhibition with 0 minutes persistence of inhibition
[26] = molecular target: T1, Neutrophil elastase (Homo sapiens); assay: Rate constant of acylation on human neutrophil elastase was determined at 30 percent and at 10 minutes for maximum inhibition with 0 minutes persistence of inhibition
[27] = molecular target: T1, Neutrophil elastase (Homo sapiens); assay: Binding constant on human neutrophil elastase was determined at 30 percent and at 10 minutes for maximum inhibition with 0 minutes persistence of inhibition
[28] = molecular target: T2, Chymotrypsin-like elastase family member 2A (Sus scrofa); assay: Specificity constant on porcine pancreatic elastase was determined at 10 percent and at 73 minutes for maximum inhibition and no enzyme activity was recovered over the 2 h-time
[29] = molecular target: T2, Chymotrypsin-like elastase family member 2A (Sus scrofa); assay: Binding constant on porcine pancreatic elastase was determined at 10 percent and at 73 minutes for maximum inhibition and no enzyme activity was recovered over the 2 h-time
[30] = molecular target: T2, Chymotrypsin-like elastase family member 2A (Sus scrofa); assay: Rate constant of acylation on porcine pancreatic elastase was determined at 10 percent and at 73 minutes for maximum inhibition and no enzyme activity was recovered over the 2 h-time
Plasminogen [31] = molecular target: T3, Plasminogen; assay: Binding constant on plasmin was determined at 0 percent and at 98 minutes for maximum inhibition and no enzyme activity was recovered over the 2 h-time
[32] = molecular target: Tissue-type plasminogen activator (Homo sapiens) (UniProt P00750); assay: Binding constant on Tissue type plasminogen activator was determined at 15 percent and at 90 minutes for maximum inhibition and no enzyme activity was recovered over the 2 h-time
Prothrombin [33] = molecular target: T4, Prothrombin; assay: Binding constant on thrombin was determined at 15 percent and at 98 minutes for maximum inhibition and no enzyme activity was recovered over the 2 h-time
Serine protease 1 [34] = molecular target: T6, Serine protease 1 (Homo sapiens, UniProt P07477); assay: Binding constant on trypsin was determined at 0 percent and at 99 minutes for maximum inhibition and no enzyme activity was recovered over the 2 h-time
Serine protease 1 [35] = molecular target: T6, Serine protease 1; assay: Rate constant of acylation on trypsin was determined at 0 percent and at 99 minutes for maximum inhibition and no enzyme activity was recovered over the 2 h-time
Serine protease 1 [36] = molecular target: T6, Serine protease 1; assay: Specificity constant on trypsin was determined at 0 percent and at 99 minutes for maximum inhibition and no enzyme activity was recovered over the 2 h-time
Plasminogen [37] = molecular target: T3, Plasminogen; remark: listed apart in the source
Plasminogen [38] = molecular target: T3, Plasminogen; remark: listed apart in the source
Prothrombin [39] = molecular target: T4, Prothrombin; remark: listed apart in the source
Prothrombin [40] = molecular target: T4, Prothrombin; remark: listed apart in the source
[41] = molecular target: Tissue-type plasminogen activator (Homo sapiens) (UniProt P00750)

T6 sequence (P07477 whole entry): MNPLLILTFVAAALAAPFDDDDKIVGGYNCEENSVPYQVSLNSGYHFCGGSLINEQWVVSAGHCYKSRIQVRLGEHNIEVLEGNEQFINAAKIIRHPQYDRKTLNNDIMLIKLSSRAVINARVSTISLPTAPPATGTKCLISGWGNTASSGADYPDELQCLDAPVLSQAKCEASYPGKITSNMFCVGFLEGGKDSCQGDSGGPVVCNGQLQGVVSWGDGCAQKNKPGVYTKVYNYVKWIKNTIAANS
T3 sequence (P00747 97-580 limits assumed): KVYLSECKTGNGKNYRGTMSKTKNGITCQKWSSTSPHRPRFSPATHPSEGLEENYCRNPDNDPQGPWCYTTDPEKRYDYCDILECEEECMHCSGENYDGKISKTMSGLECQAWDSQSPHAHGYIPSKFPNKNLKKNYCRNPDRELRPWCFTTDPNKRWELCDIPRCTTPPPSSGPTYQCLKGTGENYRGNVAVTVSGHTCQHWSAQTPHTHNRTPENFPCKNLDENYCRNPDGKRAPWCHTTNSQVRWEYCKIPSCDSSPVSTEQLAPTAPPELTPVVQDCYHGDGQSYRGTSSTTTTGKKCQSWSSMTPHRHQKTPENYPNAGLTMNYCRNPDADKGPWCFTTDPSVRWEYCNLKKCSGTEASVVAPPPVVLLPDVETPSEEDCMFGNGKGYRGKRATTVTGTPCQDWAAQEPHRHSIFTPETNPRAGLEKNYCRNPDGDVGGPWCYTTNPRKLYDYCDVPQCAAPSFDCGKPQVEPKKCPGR
T3 sequence (P00747 581-810 limits assumed): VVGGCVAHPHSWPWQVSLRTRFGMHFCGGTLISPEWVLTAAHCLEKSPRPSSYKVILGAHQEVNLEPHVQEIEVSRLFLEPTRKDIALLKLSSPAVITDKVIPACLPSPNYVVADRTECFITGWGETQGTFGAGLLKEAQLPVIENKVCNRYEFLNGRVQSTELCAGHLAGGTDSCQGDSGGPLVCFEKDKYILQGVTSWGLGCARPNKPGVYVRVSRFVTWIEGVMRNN
Tissue-type plasminogen activator (Homo sapiens), sequence (P00750 36-562 limits assumed): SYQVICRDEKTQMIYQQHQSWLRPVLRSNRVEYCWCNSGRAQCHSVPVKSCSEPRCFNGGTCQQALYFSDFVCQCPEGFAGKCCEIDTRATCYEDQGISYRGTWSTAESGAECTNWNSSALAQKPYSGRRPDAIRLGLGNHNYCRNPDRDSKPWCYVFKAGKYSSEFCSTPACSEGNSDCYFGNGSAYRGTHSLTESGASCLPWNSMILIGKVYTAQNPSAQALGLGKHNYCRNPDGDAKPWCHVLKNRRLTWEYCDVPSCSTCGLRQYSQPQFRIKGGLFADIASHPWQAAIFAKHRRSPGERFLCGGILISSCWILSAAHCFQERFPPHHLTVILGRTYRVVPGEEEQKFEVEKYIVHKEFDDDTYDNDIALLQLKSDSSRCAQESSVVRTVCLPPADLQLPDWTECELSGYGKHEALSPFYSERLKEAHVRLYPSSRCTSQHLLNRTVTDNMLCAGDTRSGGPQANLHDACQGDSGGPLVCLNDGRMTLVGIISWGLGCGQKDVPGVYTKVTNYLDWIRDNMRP

- ka/Ki [1]: 333 M⁻¹ s⁻¹
- ka [2]: 0.48 min⁻¹
- Ks/i [3]: 22.6 µM
- ka/Ki [4]: 16.7 M⁻¹ s⁻¹
- Ks/i [5]: 216 µM
- ka [6]: 0.33 min⁻¹
Structure (SMILES): CC1CC(=O)O/C(=C/Br)C1 (centres undefined)

- Kd (Plasminogen [7]): Not measurable
- Kd (Prothrombin [8]): 0.0001 s⁻¹
- Kd [9]: 0.000733 s⁻¹
- ka/Ki (Plasminogen [10]): 2000 M⁻¹ s⁻¹
- ka (Plasminogen [11]): 57 min⁻¹
- Ks/i (Plasminogen [12]): 466 µM
- Ks/i [13]: 0.35 µM
- Ks/i (Prothrombin [14]): 37.9 µM
- ka (Prothrombin [15]): 5.58 min⁻¹
- ka/Ki (Prothrombin [16]): 2500 M⁻¹ s⁻¹
- ka [17]: 9.8 min⁻¹
- ka/Ki [18]: 467000 M⁻¹ s⁻¹
Structure (SMILES): C=C1CCC(c2ccc(CNC(=N)N)cc2)C(=O)O1 (centres undefined)

- ka/Ki [19]: 333 M⁻¹ s⁻¹
- ka [20]: 0.77 min⁻¹
- Ks/i [21]: 43.3 µM
- ka [22]: 0.51 min⁻¹
- ka/Ki [23]: 83.3 M⁻¹ s⁻¹
- Ks/i [24]: 104 µM
Structure (SMILES): C=C1CC(C)(C)CC(=O)O1

- ka/Ki [25]: 500 M⁻¹ s⁻¹
- ka [26]: 0.6 min⁻¹
- Ks/i [27]: 22.7 µM
- ka/Ki [28]: 167 M⁻¹ s⁻¹
- Ks/i [29]: 393 µM
- ka [30]: 4.47 min⁻¹
Structure (SMILES): C=C1CC(C)CC(=O)O1 (centres undefined)

- Ks/i (Plasminogen [31]): 1.19 µM
- Ks/i [32]: 0.12 µM
- Ks/i (Prothrombin [33]): 14.8 µM
- Kd (Prothrombin [8]): 0.000217 s⁻¹
- Ks/i (Serine protease 1 [34]): 0.08 µM
- ka (Serine protease 1 [35]): 18.4 min⁻¹
- ka/Ki (Serine protease 1 [36]): 3.83e+06 M⁻¹ s⁻¹
- ka (Plasminogen [37]): 10.2 min⁻¹
- ka/Ki (Plasminogen [38]): 150000 M⁻¹ s⁻¹
- ka (Prothrombin [39]): 27.2 min⁻¹
- ka/Ki (Prothrombin [40]): 33300 M⁻¹ s⁻¹
- ka [41]: Not measurable
- ka [17]: 7.56 min⁻¹
- ka/Ki [18]: 1.26e+07 M⁻¹ s⁻¹
Structure (SMILES): N=C(N)NCc1ccc(C2CC/C(=C\I)OC2=O)cc1 (centres undefined)
